From US12419896B2, “Compositions and dosage forms for oral delivery” (RHODES TECHNOLOGIES, priority 2018, dated 2025)

Key:
[1] = versus Δ^9-THC; oxidation to cannabinol, shelf life; cited from earlier work
[2] = most pharmacological tests; Ophthalmic Res. (1992) 24:142-149; cited from earlier work
[3] = Miscibility of sesame oil in 40% IPA/HFA 134a; type: physicochemical; conditions: based on 10% w/v dronabinol in sesame oil
Description: In some embodiments, formulations deliver between 0.25 mg and 2 mg dose of dronabinol after application. Table 4 details the % w/w dronabinol required in the canister to achieve such doses for different actuator volumes available ([…]). The miscibility of sesame oil in 40% IPA/HFA 134a has been determined to be 7.2% w/w, equivalent to 0.8% dronabinol, based on 10% w/v dronabinol in sesame oil. Therefore, the dose of dronabinol (mg) produced from each of the difference actuator volumes based on a level of 0.8% w/w dronabinol in canisters has been presented in Table 5.

[4] = cited from earlier work

SMILES	Stability compared with Δ^9-THC [1]	Potency compared with Δ^9-THC [2]	Level of dronabinol equivalent to the sesame oil miscibility limit [3] [%]	Solubility in water [4]
CCCCCc1cc(O)c2c(c1)OC(C)(C)[C@@H]1CC=C(C)C[C@@H]21 (relative stereo) [Δ^8-THC, (−)-trans-Δ^8-tetrahydrocannabinol]	more stable	less potent		
CCCCCc1cc(O)c2c(c1)OC(C)(C)C1CCC(C)=CC21 (single isomer, unassigned; (-)) [dronabinol, (−)-trans-Δ^9-tetrahydrocannabinol]			0.8	insoluble
